# Laboratory results: patent US10766940B2, “Brain penetrant amylin receptor based peptides for Alzheimer's disease” (The Governors of the University of Alberta, priority 2016, dated 2020)
# Residues, ends and D or L forms follow the SMILES beside them.
# System: heterozygous CTR knockdown mice (50% depletion of amylin receptors)
# Experiment: R5 brain uptake in heterozygous CTR knockdown mice
# Assay type: in vivo, mouse
# Details: Wt vs CTR knockdown mice, ip, 2 hr
# Protocol: Mice were injected with a single dose and then sacrificed, and the brains were extracted after 2 hours from injection. Fluorescence in brains was quantified as previously described.
smiles,measurement,value
CC(C)C[C@H](NC(=O)[C@H](CCC(=O)O)NC(=O)[C@H](CCC(N)=O)NC(=O)[C@@H](N)CO)C(=O)N[C@@H](Cc1c[nH]cn1)C(=O)N[C@@H](CCCNC(=N)N)C(=O)N[C@@H](CC(C)C)C(=O)N[C@@H](CCC(N)=O)C(=O)N[C@H](C(=O)N[C@@H](Cc1ccc(O)cc1)C(=O)N1CCC[C@H]1C(=O)N[C@@H](CCCNC(=N)N)C(N)=O)[C@@H](C)O [R5] (H-SQELHRLQTYPR-NH2; N-terminus assumed),brain uptake in relation to amylin receptor expression,proportional to the degree of amylin receptor expression
